Here are results for one compound from US10881640B2, “Topical pharmaceutical compositions for treatment of pilonidal sinus wounds” (S.L.A. PHARMA AG, priority 2002, dated 2021).

The assay has as its system ischemic ulcers. Put plainly: Case report: ischemic ulcers (peripheral vascular disease). Format: in vivo, human. To be noted: person, prior therapy before topical treatment. From the text:
A person presents with chronic peripheral vascular disease and ischemic ulcers over the medial aspect of the hallux.

Regarding `CC(=O)CCCCn1c(=O)c2c(ncn2C)n(C)c1=O` [Trental], the healing result is “failed to improve healing”.
